Experimental data: ChEMBL document CHEMBL1201862, “PubChem BioAssay data set” (2004)
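Briefly, cells in 96-well plates were exposed to five compound concentrations for 48 h, and endpoints were estimated by linear interpolation. GI50: concentration for 50% inhibition of growth.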 The source made the active and inactive calls. No stated cut-off is given here; in the data, active = GI50 up to about 1.1 µM and inactive = higher.

Columns and labels:
Assay in all cases: inhibition of tumour cell growth, NCI panel, 48 h
HT-29 = test system: HT-29
RXF 393 = test system: RXF 393
LOX IMVI = test system: LOX IMVI
RPMI-8226 = test system: RPMI-8226
HCT-116 = test system: HCT-116
SK-MEL-5 = test system: SK-MEL-5
PC-3 = test system: PC-3
IGROV-1 = test system: IGROV-1
MDA-MB-435 = test system: MDA-MB-435
K562 = test system: K562
786-0 = test system: 786-0
SF-295 = test system: SF-295
A549 = test system: A549
SK-OV-3 = test system: SK-OV-3
OVCAR-8 = test system: OVCAR-8
NCI/ADR-RES = test system: NCI/ADR-RES
MCF7 = test system: MCF7
NCI-H226 = test system: NCI-H226
HL-60 = test system: HL-60
CCRF-CEM = test system: CCRF-CEM

| SMILES | GI50 (HT-29) | GI50 (RXF 393) | GI50 (LOX IMVI) | GI50 (RPMI-8226) | GI50 (HCT-116) | GI50 (SK-MEL-5) | GI50 (PC-3) | GI50 (IGROV-1) | GI50 (MDA-MB-435) | GI50 (K562) | GI50 (786-0) | GI50 (SF-295) | GI50 (A549) | GI50 (SK-OV-3) | GI50 (OVCAR-8) | GI50 (NCI/ADR-RES) | GI50 (MCF7) | GI50 (NCI-H226) | GI50 (HL-60) | GI50 (CCRF-CEM) |
| --- | --- | --- | --- | --- | --- | --- | --- | --- | --- | --- | --- | --- | --- | --- | --- | --- | --- | --- | --- | --- |
| COc1cccc(C(=O)O[C@H]2[C@@H]3[C@]4(OC(C)=O)CO[C@@H]4C[C@H](O)[C@@]3(C)C(=O)[C@H](OC(C)=O)C3=C(C)[C@@H](OC(=O)[C@H](O)[C@@H](NC(=O)OC(C)(C)C)c4ccco4)C[C@]2(O)C3(C)C)c1 | < 0.00375 µM (active) | 0.00726 µM (active) | < 0.00375 µM (active) | < 0.00375 µM (active) | < 0.00375 µM (active) | < 0.00375 µM (active) | < 0.00375 µM (active) | < 0.00375 µM (active) | < 0.00375 µM (active) | < 0.00375 µM (active) | 0.00522 µM (active) | < 0.00375 µM (active) | < 0.00375 µM (active) | < 0.00375 µM (active) | < 0.00375 µM (active) | 0.0107 µM (active) | < 0.00375 µM (active) | 0.36 µM (active) | < 0.00375 µM (active) | < 0.00375 µM (active) |
| CN(c1ccccc1Cl)S(=O)(=O)c1ccccc1[N+](=O)[O-] | 34.3 µM (inactive) | 29 µM (inactive) | 42.6 µM (inactive) | 24.8 µM (inactive) | 33.6 µM (inactive) | 15.3 µM (inactive) | 24.7 µM (inactive) | 70.1 µM (inactive) | 28.7 µM (inactive) | 21.3 µM (inactive) | 58.9 µM (inactive) | 71.4 µM (inactive) | 37.2 µM (inactive) | 51.5 µM (inactive) | 56.8 µM (inactive) | 27.9 µM (inactive) | > 10 µM (inactive) | 41.5 µM (inactive) | 24 µM (inactive) | 33.2 µM (inactive) |
| N#CCCN(CCC#N)c1ccc(/C=C2\N=C(c3ccccc3)N(NC(N)=S)C2=O)cc1 | > 100 µM (inactive) | > 100 µM (inactive) | > 100 µM (inactive) | > 100 µM (inactive) | > 100 µM (inactive) | > 100 µM (inactive) | > 100 µM (inactive) | > 100 µM (inactive) | 41.4 µM (inactive) | > 100 µM (inactive) | > 100 µM (inactive) | > 100 µM (inactive) | > 100 µM (inactive) | > 100 µM (inactive) | > 100 µM (inactive) | > 100 µM (inactive) | > 100 µM (inactive) | > 100 µM (inactive) | > 100 µM (inactive) | > 100 µM (inactive) |
| COc1cc2c[n+](C)c3c4cc5c(cc4ccc3c2cc1OC)OCO5 [NITIDINE CHLORIDE] | 1.56 µM (inactive) | 12.4 µM (inactive) | 3.97 µM (inactive) | 2.06 µM (inactive) | 5.96 µM (inactive) | 5.27 µM (inactive) | 2.33 µM (inactive) | 1.03 µM (active) | > 100 µM (inactive) | 4.51 µM (inactive) | 2.49 µM (inactive) | 5.93 µM (inactive) | 0.18 µM (active) | 0.877 µM (active) | 1.81 µM (inactive) | 27 µM (inactive) | 1.14 µM (inactive) | 3.61 µM (inactive) | 4.25 µM (inactive) | 0.752 µM (active) |
| CC(=O)c1sc2c(c1OC(=O)c1ccccc1)c(=O)n(-c1ccccc1)c(=S)n2-c1ccccc1 | 2.93 µM (inactive) | 2.86 µM (inactive) | 2.26 µM (inactive) | 3.12 µM (inactive) | 13.4 µM (inactive) | 5.62 µM (inactive) | 2.9 µM (inactive) | 23.3 µM (inactive) | 4.24 µM (inactive) | 17.4 µM (inactive) | 2.9 µM (inactive) | 2.48 µM (inactive) | 35.3 µM (inactive) | 4.14 µM (inactive) | 4.38 µM (inactive) | 4.65 µM (inactive) | 35.7 µM (inactive) | 2.62 µM (inactive) | 34 µM (inactive) | 2.51 µM (inactive) |
| CN(C)CC1CCC/C(=C\c2ccc(N(C)C)cc2)C1=O (stereo not given) | 2 µM (inactive) | 8.13 µM (inactive) | 1.67 µM (inactive) | > 100 µM (inactive) | 3.15 µM (inactive) | 17.6 µM (inactive) | 18.2 µM (inactive) | 3.73 µM (inactive) | 5.4 µM (inactive) | 28.1 µM (inactive) | 3.34 µM (inactive) | 18.2 µM (inactive) | 17.9 µM (inactive) | 17.8 µM (inactive) | 5.45 µM (inactive) | 25.9 µM (inactive) | 1.02 µM (active) | 18.2 µM (inactive) | > 100 µM (inactive) | > 100 µM (inactive) |
| CSc1ccc(NC(=O)C2CCCCC2C(=O)O)cc1 (stereo not given) | > 100 µM (inactive) | > 100 µM (inactive) | > 100 µM (inactive) | > 100 µM (inactive) | > 100 µM (inactive) | > 100 µM (inactive) | > 100 µM (inactive) | > 100 µM (inactive) | > 100 µM (inactive) | > 100 µM (inactive) | > 100 µM (inactive) | > 100 µM (inactive) | > 100 µM (inactive) | > 100 µM (inactive) | > 100 µM (inactive) | > 100 µM (inactive) | > 100 µM (inactive) | > 100 µM (inactive) | > 100 µM (inactive) | > 100 µM (inactive) |
| CCOC(=O)c1csc(-c2cn(C)c3c2C(=O)C(OC)=CC3=O)n1 | 48.2 µM (inactive) | 23.6 µM (inactive) | 2.6 µM (inactive) | 9.53 µM (inactive) | 18.3 µM (inactive) | 3.91 µM (inactive) | 21.4 µM (inactive) | > 46.1 µM (inactive) | 3.27 µM (inactive) | 21.6 µM (inactive) | > 100 µM (inactive) | 25 µM (inactive) | 17.8 µM (inactive) | 69 µM (inactive) | 45.2 µM (inactive) | 22.5 µM (inactive) | 7.6 µM (inactive) | > 83 µM (inactive) | 13 µM (inactive) | 72.8 µM (inactive) |
| OC1OC(c2ccco2)C(F)(F)C(F)(F)C1(F)F (stereo not given) | 23.3 µM (inactive) | > 100 µM (inactive) | > 100 µM (inactive) | 39.8 µM (inactive) | > 100 µM (inactive) | 35.2 µM (inactive) | > 100 µM (inactive) | > 100 µM (inactive) | 43.6 µM (inactive) | > 100 µM (inactive) | > 100 µM (inactive) | 68.7 µM (inactive) | 74 µM (inactive) | > 100 µM (inactive) | > 100 µM (inactive) | 61.5 µM (inactive) | > 100 µM (inactive) | > 100 µM (inactive) | 34.4 µM (inactive) | 21.9 µM (inactive) |
| CC(Cl)CN1c2ccccc2Sc2ccc(Cl)cc21 (stereo not given) | > 10 µM (inactive) | > 10 µM (inactive) | > 10 µM (inactive) | > 10 µM (inactive) | > 10 µM (inactive) | > 10 µM (inactive) | > 10 µM (inactive) | > 10 µM (inactive) | > 10 µM (inactive) | > 10 µM (inactive) | > 10 µM (inactive) | > 10 µM (inactive) | > 10 µM (inactive) | > 10 µM (inactive) | > 10 µM (inactive) | > 10 µM (inactive) | > 10 µM (inactive) | > 10 µM (inactive) | > 10 µM (inactive) | > 10 µM (inactive) |
| COC(=O)c1ccccc1C1CN=NC12Cc1cc(C)ccc1C2=O (stereo not given) | > 100 µM (inactive) | > 100 µM (inactive) | 36.4 µM (inactive) | > 100 µM (inactive) | > 100 µM (inactive) | > 100 µM (inactive) | 94.4 µM (inactive) | > 100 µM (inactive) | 62.4 µM (inactive) | 86.9 µM (inactive) | > 100 µM (inactive) | > 100 µM (inactive) | > 100 µM (inactive) | > 100 µM (inactive) | > 100 µM (inactive) | 49.9 µM (inactive) | 3.58 µM (inactive) | > 100 µM (inactive) | 92.7 µM (inactive) | > 100 µM (inactive) |
| OCc1ccc(-c2ccc(-c3ccc(CO)s3)o2)s1 | 0.432 µM (active) | 0.285 µM (active) | 21.8 µM (inactive) | 2.99 µM (inactive) | 0.0622 µM (active) | 20.7 µM (inactive) | 44.5 µM (inactive) | 0.0373 µM (active) | 4.05 µM (inactive) | 0.596 µM (active) | 4.6 µM (inactive) | 7.4 µM (inactive) | 2.36 µM (inactive) | 7.06 µM (inactive) | 12.1 µM (inactive) | 13.2 µM (inactive) | 0.0336 µM (active) | 0.0375 µM (active) | 3.56 µM (inactive) | 2.59 µM (inactive) |
| O=c1[nH]/c(=C/c2ccc(OCc3ccccc3)cn2)c(=O)[nH]/c1=C/c1ccc([N+](=O)[O-])cc1 | > 100 µM (inactive) | > 80.2 µM (inactive) | > 100 µM (inactive) | > 100 µM (inactive) | > 100 µM (inactive) | > 100 µM (inactive) | > 100 µM (inactive) | > 100 µM (inactive) | > 100 µM (inactive) | > 100 µM (inactive) | > 100 µM (inactive) | 49.1 µM (inactive) | > 100 µM (inactive) | > 73.5 µM (inactive) | > 100 µM (inactive) | > 100 µM (inactive) | > 100 µM (inactive) | > 100 µM (inactive) | > 100 µM (inactive) | > 100 µM (inactive) |
| CC(=O)C1=C(O)/C(=C\c2ccco2)OC1=O | > 10 µM (inactive) | > 10 µM (inactive) | > 10 µM (inactive) | > 10 µM (inactive) | > 10 µM (inactive) | > 10 µM (inactive) | > 10 µM (inactive) | > 10 µM (inactive) | > 10 µM (inactive) | > 10 µM (inactive) | > 10 µM (inactive) | > 10 µM (inactive) | > 10 µM (inactive) | > 10 µM (inactive) | > 10 µM (inactive) | > 10 µM (inactive) | > 10 µM (inactive) | > 10 µM (inactive) | > 10 µM (inactive) | > 10 µM (inactive) |
